Results published in ChEMBL document CHEMBL1687767, “New antiseptic peptides to protect against endotoxin-mediated shock” (Antimicrob Agents Chemother, 2010).
≈ marks a conversion by molar mass, not a printed value. Calls of active or inactive are those of the source. The rule behind the calls is not given here. Residues, ends and D or L forms follow the SMILES beside them.

Columns and labels:
[1] = system: Staphylococcus aureus; assay: Antimicrobial activity against methicillin-resistant Staphylococcus aureus ATCC 43300 by broth microdilution method; format: functional
[2] = system: Pseudomonas aeruginosa; assay: Antimicrobial activity against Pseudomonas aeruginosa CUN 4158-02 by broth microdilution method; format: functional
[3] = system: Escherichia coli; assay: Antimicrobial activity against Escherichia coli ATCC 25922 by broth microdilution method; format: functional
[4] = system: Acinetobacter baumannii; assay: Antimicrobial activity against […] Acinetobacter baumannii ATCC 19606 by broth microdilution method; format: functional
[5] = system: Pseudomonas aeruginosa; assay: Antimicrobial activity against Pseudomonas aeruginosa ATCC 27853 by broth microdilution method; format: functional
[6] = system: Bordetella bronchiseptica; assay: Antimicrobial activity against Bordetella bronchiseptica CUN11844-99 by broth microdilution method; format: functional
[7] = system: Staphylococcus aureus; assay: Antimicrobial activity against methicillin-resistant Staphylococcus aureus CUN 3792-99 by broth microdilution method; format: functional
[8] = system: Staphylococcus aureus; assay: Antimicrobial activity against Staphylococcus aureus ATCC 25923 by broth microdilution method; format: functional
[9] = system: Stenotrophomonas maltophilia; assay: Antimicrobial activity against […] Stenotrophomonas maltophilia CUN 3998-00 by broth microdilution method; format: functional
[10] = species: Homo sapiens; assay: Antiinflammatory activity in human MNC assessed as inhibition of LPS-induced TNFalpha production at compound: LPS ratio of 100:1 weight percent by ELISA; format: functional
[11] = Toxicity in human RBC assessed as hemolysis upto 25 ug/ml; format: cell-based; conditions: erythrocyte
[12] = system: Mus musculus; assay: Antisepsis activity in Pseudomonas aeruginosa LPS-induced C57BL/6 mouse lethal endotoxin shock model assessed as mouse survival at 12.5 ug, ip administered immediately after LPS challenge; format: functional, organism-based

Structure (SMILES)	MIC [1] [µg/mL]	MIC [2] [µg/mL]	MIC [3] [µg/mL]	MIC [4] [µg/mL]	MIC [5] [µg/mL]	MIC [6] [µg/mL]	MIC [7] [µg/mL]	MIC [8] [µg/mL]	MIC [9] [µg/mL]	inhibition [10]	Activity [11]	Activity [12]
CC(C)C[C@H](NC(=O)[C@H](Cc1c[nH]c2ccccc12)NC(=O)[C@H](CC(C)C)NC(=O)[C@H](CCCCN)NC(=O)[C@H](CCC(N)=O)NC(=O)[C@H](CCCCN)NC(=O)[C@H](CS)NC(=O)[C@H](CCCCN)NC(=O)[C@H](CC(C)C)NC(=O)[C@H](CCCCN)NC(=O)[C@H](Cc1ccccc1)NC(=O)[C@H](CCCNC(=N)N)NC(=O)[C@H](CCCNC(=N)N)NC(=O)[C@H](Cc1ccccc1)NC(=O)[C@H](CCCCN)NC(=O)[C@H](CCCCN)NC(=O)[C@H](CS)NC(=O)CN)C(=O)N[C@@H](Cc1c[nH]c2ccccc12)C(=O)N[C@@H](CS)C(=O)NCC(=O)O (H-GCKKFRRFKLKCKQKLWLWCG-OH)	64 (≈ 24.1 µM)	256 (≈ 96.3 µM)	1020 (≈ 385 µM)	64 (≈ 24.1 µM)	256 (≈ 96.3 µM)	16 (≈ 6.02 µM)	32 (≈ 12 µM)	1020 (≈ 385 µM)	1020 (≈ 385 µM)			
CC(C)C[C@H](NC(=O)[C@H](CCCNC(=N)N)NC(=O)[C@H](CCCNC(=N)N)NC(=O)[C@H](Cc1ccccc1)NC(=O)[C@H](CCCCN)NC(=O)[C@H](CCCCN)NC(=O)[C@H](CS)NC(=O)CN)C(=O)N[C@@H](CCCCN)C(=O)N[C@@H](Cc1c[nH]c2ccccc12)C(=O)N[C@@H](CCCCN)C(=O)N[C@@H](Cc1ccc(O)cc1)C(=O)N[C@@H](CCCCN)C(=O)NCC(=O)N[C@@H](CCCCN)C(=O)N[C@@H](Cc1ccccc1)C(=O)N[C@@H](Cc1c[nH]c2ccccc12)C(=O)N[C@@H](Cc1ccccc1)C(=O)N[C@@H](Cc1c[nH]c2ccccc12)C(=O)N[C@@H](CS)C(=O)NCC(=O)O (H-GCKKFRRLKWKYKGKFWFWCG-OH)	64 (≈ 23.2 µM)	256 (≈ 93 µM)	64 (≈ 23.2 µM)	64 (≈ 23.2 µM)	256 (≈ 93 µM)	4 (≈ 1.45 µM)	1020 (≈ 372 µM)	32 (≈ 11.6 µM)	512 (≈ 186 µM)	Active		
N=C(N)NCCC[C@H](NC(=O)[C@H](Cc1ccc(O)cc1)NC(=O)[C@H](CCCCN)NC(=O)[C@H](CCCCN)NC(=O)[C@H](CS)NC(=O)CN)C(=O)N[C@@H](CCCNC(=N)N)C(=O)N[C@@H](Cc1ccccc1)C(=O)N[C@@H](CCCNC(=N)N)C(=O)N[C@@H](Cc1c[nH]c2ccccc12)C(=O)N[C@@H](CCCCN)C(=O)N[C@@H](Cc1ccccc1)C(=O)N[C@@H](CCCCN)C(=O)NCC(=O)N[C@@H](CCCCN)C(=O)N[C@@H](Cc1ccccc1)C(=O)N[C@@H](Cc1c[nH]c2ccccc12)C(=O)N[C@@H](Cc1ccccc1)C(=O)N[C@@H](Cc1c[nH]c2ccccc12)C(=O)O (H-GCKKYRRFRWKFKGKFWFW-OH)	32 (≈ 12.1 µM)	128 (≈ 48.2 µM)	64 (≈ 24.1 µM)	64 (≈ 24.1 µM)	64 (≈ 24.1 µM)	64 (≈ 24.1 µM)	64 (≈ 24.1 µM)	64 (≈ 24.1 µM)	128 (≈ 48.2 µM)	Active	Non-toxic	
N=C(N)NCCC[C@H](NC(=O)[C@H](Cc1ccc(O)cc1)NC(=O)[C@H](CCCCN)NC(=O)[C@H](CCCCN)NC(=O)[C@H](CS)NC(=O)CN)C(=O)N[C@@H](CCCNC(=N)N)C(=O)N[C@@H](Cc1ccccc1)C(=O)N[C@@H](CCCNC(=N)N)C(=O)N[C@@H](Cc1c[nH]c2ccccc12)C(=O)N[C@@H](CCCCN)C(=O)N[C@@H](Cc1ccccc1)C(=O)N[C@@H](CCCCN)C(=O)NCC(=O)N[C@@H](CCCCN)C(=O)N[C@@H](Cc1ccccc1)C(=O)N[C@@H](Cc1c[nH]c2ccccc12)C(=O)N[C@@H](Cc1ccccc1)C(=O)N[C@@H](Cc1c[nH]c2ccccc12)C(=O)N[C@@H](CS)C(=O)NCC(=O)O (H-GCKKYRRFRWKFKGKFWFWCG-OH)	128 (≈ 45.5 µM)	256 (≈ 90.9 µM)	128 (≈ 45.5 µM)	64 (≈ 22.7 µM)	128 (≈ 45.5 µM)	32 (≈ 11.4 µM)	1020 (≈ 364 µM)	128 (≈ 45.5 µM)	512 (≈ 182 µM)	Active		Active
N=C(N)NCCC[C@H](NC(=O)CNC(=O)[C@H](CCCNC(=N)N)NC(=O)[C@H](Cc1ccc(O)cc1)NC(=O)[C@H](CCCNC(=N)N)NC(=O)[C@H](Cc1c[nH]c2ccccc12)NC(=O)[C@H](CCCCN)NC(=O)[C@H](CCCCN)NC(=O)[C@H](Cc1ccccc1)NC(=O)[C@H](CCCCN)NC(=O)[C@H](CCCCN)NC(=O)[C@H](Cc1ccccc1)NC(=O)[C@H](CCCNC(=N)N)NC(=O)[C@H](CCCNC(=N)N)NC(=O)[C@H](CS)NC(=O)CN)C(=O)N[C@@H](Cc1ccccc1)C(=O)N[C@@H](Cc1c[nH]c2ccccc12)C(=O)N[C@@H](Cc1ccccc1)C(=O)N[C@@H](Cc1c[nH]c2ccccc12)C(=O)N[C@@H](CS)C(=O)N[C@@H](Cc1ccccc1)C(=O)NCC(=O)O (H-GCRRFKKFKKWRYRGRFWFWCFG-OH)	32 (≈ 10.2 µM)	128 (≈ 40.7 µM)	64 (≈ 20.3 µM)	64 (≈ 20.3 µM)	128 (≈ 40.7 µM)	32 (≈ 10.2 µM)	64 (≈ 20.3 µM)	64 (≈ 20.3 µM)	64 (≈ 20.3 µM)			
N=C(N)NCCC[C@H](NC(=O)[C@H](Cc1ccc(O)cc1)NC(=O)[C@H](CCCNC(=N)N)NC(=O)[C@H](Cc1c[nH]c2ccccc12)NC(=O)[C@H](CCCNC(=N)N)NC(=O)[C@H](Cc1ccccc1)NC(=O)[C@H](CCCCN)NC(=O)[C@H](CCCCN)NC(=O)[C@H](Cc1c[nH]c2ccccc12)NC(=O)[C@H](CCCNC(=N)N)NC(=O)[C@H](CCCNC(=N)N)NC(=O)[C@H](CS)NC(=O)CN)C(=O)NCC(=O)N[C@@H](CCCCN)C(=O)N[C@@H](Cc1ccccc1)C(=O)N[C@@H](Cc1c[nH]c2ccccc12)C(=O)N[C@@H](Cc1ccccc1)C(=O)N[C@@H](Cc1c[nH]c2ccccc12)C(=O)N[C@@H](CS)C(=O)NCC(=O)O (H-GCRRWKKFRWRYRGKFWFWCG-OH)	32 (≈ 11 µM)	128 (≈ 44 µM)	128 (≈ 44 µM)	64 (≈ 22 µM)	128 (≈ 44 µM)	32 (≈ 11 µM)	64 (≈ 22 µM)	64 (≈ 22 µM)	64 (≈ 22 µM)			
N=C(N)NCCC[C@H](NC(=O)[C@H](Cc1ccc(O)cc1)NC(=O)[C@H](CCCCN)NC(=O)[C@H](CCCCN)NC(=O)CN)C(=O)N[C@@H](CCCNC(=N)N)C(=O)N[C@@H](Cc1ccccc1)C(=O)N[C@@H](CCCNC(=N)N)C(=O)N[C@@H](Cc1c[nH]c2ccccc12)C(=O)N[C@@H](CCCCN)C(=O)N[C@@H](Cc1ccccc1)C(=O)N[C@@H](CCCCN)C(=O)NCC(=O)N[C@@H](CCCCN)C(=O)N[C@@H](Cc1c[nH]c2ccccc12)C(=O)N[C@@H](Cc1ccccc1)C(=O)N[C@@H](Cc1c[nH]c2ccccc12)C(=O)N[C@@H](Cc1ccccc1)C(=O)NCC(=O)O (H-GKKYRRFRWKFKGKWFWFG-OH)	16 (≈ 6.13 µM)	16 (≈ 6.13 µM)	16 (≈ 6.13 µM)	16 (≈ 6.13 µM)	16 (≈ 6.13 µM)	4 (≈ 1.53 µM)	16 (≈ 6.13 µM)	16 (≈ 6.13 µM)	32 (≈ 12.3 µM)			
N=C(N)NCCC[C@H](NC(=O)[C@H](Cc1ccc(O)cc1)NC(=O)[C@H](CCCCN)NC(=O)[C@H](CCCCN)NC(=O)CN)C(=O)N[C@@H](CCCNC(=N)N)C(=O)N[C@@H](Cc1ccccc1)C(=O)N[C@@H](Cc1c[nH]c2ccccc12)C(=O)N[C@@H](CCCCN)C(=O)N[C@@H](Cc1ccccc1)C(=O)N[C@@H](CCCCN)C(=O)NCC(=O)N[C@@H](CCCCN)C(=O)N[C@@H](Cc1c[nH]c2ccccc12)C(=O)N[C@@H](Cc1ccccc1)C(=O)N[C@@H](Cc1c[nH]c2ccccc12)C(=O)N[C@@H](Cc1ccccc1)C(=O)N[C@@H](Cc1c[nH]c2ccccc12)C(=O)NCC(=O)O (H-GKKYRRFWKFKGKWFWFWG-OH)	16 (≈ 6.06 µM)	32 (≈ 12.1 µM)	1020 (≈ 388 µM)	16 (≈ 6.06 µM)	8 (≈ 3.03 µM)	8 (≈ 3.03 µM)	16 (≈ 6.06 µM)	1020 (≈ 388 µM)	64 (≈ 24.3 µM)			
N=C(N)NCCC[C@H](NC(=O)CNC(=O)[C@H](CCCNC(=N)N)NC(=O)[C@H](Cc1ccccc1)NC(=O)[C@H](CCCNC(=N)N)NC(=O)[C@H](Cc1c[nH]c2ccccc12)NC(=O)[C@H](CCCCN)NC(=O)[C@H](Cc1ccccc1)NC(=O)[C@H](CCCCN)NC(=O)[C@H](CCCCN)NC(=O)[C@H](Cc1ccc(O)cc1)NC(=O)[C@H](CCCNC(=N)N)NC(=O)[C@H](CCCNC(=N)N)NC(=O)CN)C(=O)N[C@@H](Cc1ccccc1)C(=O)N[C@@H](Cc1c[nH]c2ccccc12)C(=O)N[C@@H](Cc1ccccc1)C(=O)N[C@@H](Cc1c[nH]c2ccccc12)C(=O)NCC(=O)O (H-GRRYKKFKWRFRGRFWFWG-OH)			64 (≈ 24 µM)			16 (≈ 6 µM)		32 (≈ 12 µM)				
N=C(N)NCCC[C@H](NC(=O)[C@H](Cc1ccccc1)NC(=O)[C@H](CCCCN)NC(=O)[C@H](Cc1c[nH]c2ccccc12)NC(=O)[C@H](CS)NC(=O)[C@H](Cc1ccccc1)NC(=O)[C@H](CCCNC(=N)N)NC(=O)[C@H](Cc1ccc(O)cc1)NC(=O)[C@H](CCCCN)NC(=O)CNC(=O)[C@H](Cc1ccccc1)NC(=O)[C@H](CCCNC(=N)N)NC(=O)[C@H](Cc1c[nH]c2ccccc12)NC(=O)[C@H](CCCCN)NC(=O)CNC(=O)[C@H](Cc1ccccc1)NC(=O)[C@@H](N)CCCCN)C(=O)NCC(=O)N[C@@H](Cc1c[nH]c2ccccc12)C(=O)N[C@@H](CCCCN)C(=O)O (H-KFGKWRFGKYRFCWKFRGWK-OH)											Non-toxic	
CC[C@H](C)[C@H](NC(=O)CN)C(=O)NCC(=O)N[C@@H](C)C(=O)N[C@H](C(=O)N[C@@H](CC(C)C)C(=O)N[C@@H](CCCCN)C(=O)N[C@H](C(=O)N[C@@H](CC(C)C)C(=O)N[C@H](C(=O)N[C@H](C(=O)NCC(=O)N[C@@H](CC(C)C)C(=O)N1CCC[C@H]1C(=O)N[C@@H](C)C(=O)N[C@@H](CC(C)C)C(=O)N[C@H](C(=O)N[C@@H](CO)C(=O)N[C@@H](Cc1c[nH]c2ccccc12)C(=O)N[C@H](C(=O)N[C@@H](CCCCN)C(=O)N[C@@H](CCCNC(=N)N)C(=O)N[C@@H](CCCCN)C(=O)N[C@@H](CCCNC(=N)N)C(=O)N[C@@H](CCC(N)=O)C(=O)N[C@@H](CCC(N)=O)C(N)=O)[C@@H](C)CC)[C@@H](C)CC)[C@@H](C)O)[C@@H](C)O)C(C)C)C(C)C [MELITTIN]											Non-toxic	
